Patent US10709724B2, “Methods of treating mitochondrial dysfunction” (Ecole Polytechnique Federale de Lausanne (EPFL), priority 2011, dated 2020)

Tests used:
[1] = system: PDK4 and UCP-3 promoters; assay: ChIP of PGC-1α promoter occupancy in C2C12 myotubes; type: cell-based; conditions: 1 μM, 48 h
Description: Chromatin Immunoprecipitation (ChIP). ChIP was performed according to (Bai et al., 2007). FLAG-HA-PGC-1 (Rodgers et al., 2005) was introduced by adenoviral transfer into C2C12 myotubes after 48 h of differentiation and cells were cultured for an additional 2 days. […] Thereafter ChIP was performed using anti-FLAG (Sigma) and anti-TNF-R1 (Santa Cruz) as described (Bai et al., 2007). Pelleted DNA was quantified by qPCR using the primers against PDK4 and UCP-3 promoters flanking the nuclear receptor site (Table 3 and 6). The results were normalized for the signal of the respective inputs (vehicle/PJ34-treated) and were expressed as a percentage. The signal of anti-TNF-R1 (non-specific antibody) was subtracted from the anti-FLAG signal (specific) and the specific signal was plotted. Primers for ChIP are summarized in Supplementary Table 3 and 6.

[2] = system: SIRT1 MEF cells; assay: PJ34 in SIRT1−/− MEFs; type: cell-based, mice
Description: Cell Culture, Transfection, Adenoviral Infection and Mitochondrial Characterization. HEK293T, MEF and C2C12 cells were cultured in DMEM (4.5 g/l glucose, 10% FCS). PARP-1^+/+ and PARP-1^−/− MEFs were prepared as described in (Menissier-de Murcia et al., 1997). SIRT1 and MEFs were kindly provided by Fred Alt (Chea et al., 2005). SIRT3 MER were established according to standard techniques from conditional SERT3^−/− mice. […] Mitochondrial charge determination was performed as described (Bai et al., 2001) and DNA strand breaks were quantified by TUNEL assays according to the manufacturer's instructions (Millipore).
Immunoprecipitation, SDS-PAGE, Western Blotting. […] Reactions were developed by enhanced chemiluminescence (Amersham, Little Chalfont, UK), PGC-1α, FOXO1 and Ndufa9 acetylation levels were analyzed by immunoprecipitation from cellular or nuclear lysates of tissues with anti-PGC-1α (Millipore), anti-FOXO1 (Cell Signaling, Danvers, Mass., USA) and anti-Ndufa9 (Abcam) antibody followed by Western blot using an acetyl-lysine antibody (Cell Signaling) that was normalized to total PGC-1a/FOXO1/Ndufa9 levels (Lagouge et al., 2006; Rodgers et al., 2005). […] All blots were quantified by densitometry using ImageJ software. […]

In the case of CN(C)CC(=O)Nc1ccc2[nH]c(=O)c3ccccc3c2c1 [PJ34], the “PGC-1 binding to the UCP3 promoter” value [1] is reported as “not regulated through the binding of PGC-1 to its promoter”, the “PGC-1α recruitment to the PDK4 promoter” value [1] is reported as “increased PGC-1α recruitment to target-genes” and the mitochondrial gene expression ([2]; SIRT1 MEF cells) is reported as “largely blunted”. For the same molecule, the PGC-1α acetylation levels ([2]; SIRT1−/− MEFs) was “totally unable to decrease PGC-1α acetylation levels”.
